Source: patent US7452887B2, “Quinoline- and isoquinoline-based compounds exhibiting ATP-utilizing enzyme inhibitory activity, and compositions, and uses thereof” (Amphora Discovery Corporation, priority 2004, dated 2008)

Experiments:
PRAK = biological target: T1, PRAK (Homo sapiens, UniProt Q8IW41); assay: HTS ATP-utilizing enzyme assay, off-chip mobility-shift (Caliper HTS 250); assay type: biochemical; details: test compound 10 μM, kinase listed = active (greater than six-sigma from the mean activity of inactive compounds)
T1 sequence (Q8IW41 1-473): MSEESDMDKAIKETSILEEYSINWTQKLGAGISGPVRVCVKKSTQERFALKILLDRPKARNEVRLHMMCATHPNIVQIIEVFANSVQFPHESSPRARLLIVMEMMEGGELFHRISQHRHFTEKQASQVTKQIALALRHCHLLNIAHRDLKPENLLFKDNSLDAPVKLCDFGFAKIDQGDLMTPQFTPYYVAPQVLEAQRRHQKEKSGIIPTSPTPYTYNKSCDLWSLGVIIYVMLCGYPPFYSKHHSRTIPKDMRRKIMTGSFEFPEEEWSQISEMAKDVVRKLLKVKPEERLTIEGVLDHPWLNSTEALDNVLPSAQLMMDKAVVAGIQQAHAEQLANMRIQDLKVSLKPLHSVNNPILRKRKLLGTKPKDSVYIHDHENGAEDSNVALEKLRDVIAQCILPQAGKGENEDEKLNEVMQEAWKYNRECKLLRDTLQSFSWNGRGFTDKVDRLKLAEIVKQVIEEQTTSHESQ
Source text: The following procedures describe the reagent and plate preparation for a HTS of an ATP-utilizing enzyme, such as a protein kinase, run in an off-chip mobility-shift assay format. The following provides an HTS protocol for running a protein kinase HTS screen on a Caliper HTS 250 microfluidics system. The following parameters are dependent on the protein kinase used and can be determined by one skilled in the art as part of a typical assay development process. For example, the peptide substrate used can be identified from the current literature, by screening a peptide library of potential protein kinase substrates, or by other applicable means accepted in the field.
The following table provides typical screen assay parameters appropriate for a Caliper HTS 250 microfluidics system.
The reagents and buffers listed in the following table are generally applicable for developing and running an HTS screen on a human protein kinase using the Caliper HTS 250 system.
The following reagents were prepared using the previously described buffers.
A 2× Master Buffer solution was prepared by combining 200 mL of 1 M HEPES, pH 7.5, 2 mL of 10% Triton X-100, 20 mL of 10% BSA, and 778 mL of H2O.
A 2.5× Substrate Buffer solution was prepared by combining 177.408 mL of 2× Master Buffer, 0.887 mL of 1 mM peptide-X, and 176.521 mL of H2O.
A 1.55× Termination Buffer solution was prepared by combining 762.05 mL of 2× Master Buffer, 95.1 mL of 0.5 M EDTA, and 666.94 mL of H2O.
A TCB Buffer solution was prepared by combining 125 mL of 2× Master Buffer, 10 mL of 0.5 M EDTA, 6.25 mL of 4% coating reagent, 1.01 mL of 100% DMSO, and 107.74 mL H2O.
A Dye Trough solution was prepared by combining 0.5 μL of peptide-X, and 2,999.5 μL of IX Master Buffer.
A 1.06× Assay Buffer solution was prepared by combining 205.15 mL of 2× Master Buffer, and 181.92 mL of H2O.
Assays to determine the kinase inhibitory activity of compounds of the present disclosure were performed using a Caliper HTS 250 microfluidics device, Greiner U-bottom assay plates, a Multidrop for transfer of reagents, and Biomek FX (AMNCBM03) software. Initially, 2.4 μL of a 1 mM solution of a test compound in 100% DMSO was added to a well of the Greiner U-bottom plate. A single Greiner U-bottom plate having 24×16 wells could include multiple test compounds. Next, […] of 1.06× Assay Buffer was added to each well of the assay plate. Using the Biomek FX, 10 μL of 0.5 M EDTA was added by the span-8 to wells, indicated as 100% Control and 2.4 μL of 100% DMSO was added by the span-8 to wells, indicated as 0% Control. Using the Multidrop, 10 μL of 2.5× Enzyme Buffer, followed by 10 μL of 2.5× Substrate Buffer was added to each well of the assay plate. The total reaction volume in each well was 25 μL, and the concentration of the test compound was 10 μM. The assay plate was incubated for 2.5 hrs at 20° C. to 22° C. After the incubation period, using the Multidrop, 45 μL of 1.55× Termination Buffer was added to each well of the assay plate to stop the reaction. The inhibition of the ATP-utilizing enzyme, such as a particular protein kinase, was determined by measuring the ratio of the peptide substrate to phosphorylated product for each well of the assay plate using the Caliper HTS 250 system.
The use of six-sigma statistical limits represents a conservative method for declaring potential hits among targets. The six-sigma activity, as well as the mean population activity, can be different for each target enzyme. This method has an expected false positive rate, from an in-control measurement process, of one in one million.

MAPKAPK2 = MAPKAPK2 (Homo sapiens, UniProt P49137); assay: as above; assay type: biochemical; details: test compound 10 μM, kinase listed = active (greater than six-sigma from the mean activity of inactive compounds)
MAPKAPK2, sequence (P49137 whole entry): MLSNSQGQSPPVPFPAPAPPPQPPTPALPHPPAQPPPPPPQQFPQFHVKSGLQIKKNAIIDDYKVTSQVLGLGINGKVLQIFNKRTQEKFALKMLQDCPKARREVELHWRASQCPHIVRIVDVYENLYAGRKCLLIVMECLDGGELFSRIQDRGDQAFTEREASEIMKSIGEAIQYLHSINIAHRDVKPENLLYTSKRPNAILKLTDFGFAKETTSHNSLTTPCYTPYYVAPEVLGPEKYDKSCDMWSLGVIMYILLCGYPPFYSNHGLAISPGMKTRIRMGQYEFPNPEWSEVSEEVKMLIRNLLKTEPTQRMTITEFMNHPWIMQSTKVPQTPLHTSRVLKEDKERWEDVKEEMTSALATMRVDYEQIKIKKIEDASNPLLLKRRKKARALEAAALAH
Summary of the method: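 Single-point screen of test compound at 10 μM against MAPKAPK2 with peptide substrate in HEPES pH 7.5 buffer (Triton X-100, BSA), 2.5 h at 20-22 °C. Substrate-to-phosphopeptide ratio was read by off-chip microfluidic mobility shift; EDTA and DMSO wells defined 100% and 0% controls, hits by six-sigma limits.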

SMILES | Activity (PRAK) | Activity (MAPKAPK2)
CC(=O)c1ccc(-c2ccc3nccc(Nc4ccc(N5CCN(C)CC5)cc4)c3c2)s1 [1-(5-(4-(4-(4-methylpiperazin-1-yl)phenylamino)quinolin-6-yl)thiophen-2-yl)ethanone] | PRAK | MAPKAPK2
N#Cc1ccc(-c2ccc3nccc(Nc4ccc(N5CCN(CC(=O)O)CC5)cc4)c3c2)cc1 [2-(4-(4-(6-(4-cyanophenyl)quinolin-4-ylamino)phenyl)piperazin-1-yl)acetic acid] | PRAK | MAPKAPK2
OCCCN1CCN(c2ccc(Nc3ccnc4ccc(-c5ccccc5)cc34)cc2)CC1 [3-(4-(4-(6-phenylquinolin-4-ylamino)phenyl)piperazin-1-yl)propan-1-ol] | PRAK | MAPKAPK2
N#CCCN1CCN(c2ccc(Nc3ccnc4ccc(-c5ccccc5)cc34)cc2)CC1 [3-(4-(4-(6-phenylquinolin-4-ylamino)phenyl)piperazin-1-yl)propanenitrile] | PRAK | MAPKAPK2
CN(C)C1CCN(c2ccc(Nc3ccnc4ccc(-c5ccc(C#N)cc5)cc34)cc2)C1 (stereo not drawn) [4-(4-(4-(3-(dimethylamino)pyrrolidin-1-yl)phenylamino)quinolin-6-yl)benzonitrile] | PRAK | 
N#CCCN1CCN(c2ccc(Nc3ccnc4ccc(-c5ccc(C#N)cc5)cc34)cc2)CC1 [4-(4-(4-(4-(2-cyanoethyl)piperazin-1-yl)phenylamino)quinolin-6-yl)benzonitrile] | PRAK | MAPKAPK2
N#Cc1ccc(-c2ccc3nccc(Nc4ccc(N5CCNCC5)cc4)c3c2)cc1 [4-(4-(4-(piperazin-1-yl)phenylamino)quinolin-6-yl)benzonitrile] | PRAK | MAPKAPK2
COc1ccc(OC)c(-c2ccc3nccc(Nc4ccc(N5CCN(C)CC5)cc4)c3c2)c1 [6-(2,5-dimethoxyphenyl)-N-(4-(4-methylpiperazin-1-yl)phenyl)quinolin-4-amine] | PRAK | MAPKAPK2
CN1CCN(c2ccc(Nc3ccnc4ccc(-c5c(F)cccc5F)cc34)cc2)CC1 [6-(2,6-difluorophenyl)-N-(4-(4-methylpiperazin-1-yl)phenyl)quinolin-4-amine] | PRAK | MAPKAPK2
CN1CCN(c2ccc(Nc3ccnc4ccc(-c5cc(F)cc(F)c5)cc34)cc2)CC1 [6-(3,5-difluorophenyl)-N-(4-(4-methylpiperazin-1-yl)phenyl)quinolin-4-amine] | PRAK | MAPKAPK2
COc1ccc(F)cc1-c1ccc2nccc(Nc3ccc(N4CCN(C)CC4)cc3)c2c1 [6-(5-fluoro-2-methoxyphenyl)-N-(4-(4-methylpiperazin-1-yl)phenyl)quinolin-4-amine] | PRAK | MAPKAPK2
COc1ccc(C(C)C)cc1-c1ccc2nccc(Nc3ccc(N4CCN(C)CC4)cc3)c2c1 [6-(5-isopropyl-2-methoxyphenyl)-N-(4-(4-methylpiperazin-1-yl)phenyl)quinolin-4-amine] | PRAK | MAPKAPK2

Now from value to molecule:

Activity (PRAK) | Activity (MAPKAPK2) | SMILES
PRAK | MAPKAPK2 | CCN1CCN(c2ccc(Nc3ccnc4ccc(-c5ccc(C#N)cc5)cc34)cc2)CC1 [4-(4-(4-(4-ethylpiperazin-1-yl)phenylamino)quinolin-6-yl)benzonitrile]
PRAK | MAPKAPK2 | CCCN1CCN(c2ccc(Nc3ccnc4ccc(-c5ccc(C#N)cc5)cc34)cc2)CC1 [4-(4-(4-(4-propylpiperazin-1-yl)phenylamino)quinolin-6-yl)benzonitrile]
PRAK | MAPKAPK2 | CN1CCN(c2ccc(Nc3ccnc4ccc(-c5ccccc5F)cc34)cc2)CC1 [6-(2-fluorophenyl)-N-(4-(4-methylpiperazin-1-yl)phenyl)quinolin-4-amine]
PRAK | MAPKAPK2 | CN1CCN(c2ccc(Nc3ccnc4ccc(-c5ccc(F)c(F)c5)cc34)cc2)CC1 [6-(3,4-difluorophenyl)-N-(4-(4-methylpiperazin-1-yl)phenyl)quinolin-4-amine]
PRAK | MAPKAPK2 | CN1CCN(c2ccc(Nc3ccnc4ccc(-c5cccc(F)c5)cc34)cc2)CC1 [6-(3-fluorophenyl)-N-(4-(4-methylpiperazin-1-yl)phenyl)quinolin-4-amine]
PRAK | MAPKAPK2 | CC(C)c1cccc(-c2ccc3nccc(Nc4ccc(N5CCN(C)CC5)cc4)c3c2)c1 [6-(3-isopropylphenyl)-N-(4-(4-methylpiperazin-1-yl)phenyl)quinolin-4-amine]
PRAK | MAPKAPK2 | CCCCc1ccc(-c2ccc3nccc(Nc4ccc(N5CCN(C)CC5)cc4)c3c2)cc1 [6-(4-butylphenyl)-N-(4-(4-methylpiperazin-1-yl)phenyl)quinolin-4-amine]
PRAK | MAPKAPK2 | CN1CCN(c2ccc(Nc3ccnc4ccc(-c5ccc(Cl)cc5)cc34)cc2)CC1 [6-(4-chlorophenyl)-N-(4-(4-methylpiperazin-1-yl)phenyl)quinolin-4-amine]
PRAK | MAPKAPK2 | CCOc1ccc(-c2ccc3nccc(Nc4ccc(N5CCN(C)CC5)cc4)c3c2)cc1 [6-(4-ethoxyphenyl)-N-(4-(4-methylpiperazin-1-yl)phenyl)quinolin-4-amine]
PRAK | MAPKAPK2 | Cc1cc(F)ccc1-c1ccc2nccc(Nc3ccc(N4CCN(C)CC4)cc3)c2c1 [6-(4-fluoro-2-methylphenyl)-N-(4-(4-methylpiperazin-1-yl)phenyl)quinolin-4-amine]
PRAK | MAPKAPK2 | CCCN1CCN(c2ccc(Nc3ccnc4ccc(-c5ccccc5)cc34)cc2)CC1 [6-phenyl-N-(4-(4-propylpiperazin-1-yl)phenyl)quinolin-4-amine]
PRAK |  | CN1CCN(c2ccc(Nc3ccnc4ccc(-c5cccc(C(F)(F)F)c5)cc34)cc2)CC1 [N-(4-(4-methylpiperazin-1-yl)phenyl)-6-(3-(trifluoromethyl)phenyl)quinolin-4-amine]
PRAK |  | CSc1ccc(-c2ccc3nccc(Nc4ccc(N5CCN(C)CC5)cc4)c3c2)cc1 [N-(4-(4-methylpiperazin-1-yl)phenyl)-6-(4-(methylthio)phenyl)quinolin-4-amine]
PRAK |  | CN1CCN(c2ccc(Nc3ccnc4ccc(-c5ccccc5)cc34)cc2)CC1 [N-(4-(4-methylpiperazin-1-yl)phenyl)-6-phenylquinolin-4-amine]
